# Reference: patent US8895579B2, “Heterotricyclic AMPA receptor antagonists for treatment of epilepsy, pain, and other neurological disorders and diseases” (Northwestern University, priority 2010, dated 2014)
# How the values were obtained:
# [1] = biological target: T1, homomeric GluK2a kainate receptor (Rattus norvegicus, UniProt P42260); test: Whole-cell patch clamp of recombinant GluK2a receptors in HEK293-T/17 cells; assay type: cell-based; conditions: 30 μM; 10 mM glutamate
# T1 construct: myc; expressed in transfected cells; host or cells: HEK293-T/17 (CRL-11268)
# Description: (§1) Cell Culture and Transfection. Human embryonic kidney cells expressing T-antigen, clone 17 (HEK293-T/17) (CRL-11268) were cultured at 37° C. with 5% CO2 in DMEM, including 100 μg/mL penicillin, 100 μg/mL streptomycin, and 10% heat-inactivated fetal bovine serum. Cells were split twice per week. For transfection, HEK293-T/17 cells were plated at 3×10^4 cells/cm^2 for pharmacology experiments and 5×10^3 cells/cm^2 for physiology experiments in fresh medium 24 h prior to transfection. Cells were transfected with AMPA or KA receptor plasmid cDNAs using Mirus Trans-IT transfection reagent (Minus Bio Corporation, Madison, Wis.) at a ratio of 1 μg cDNA: 3 μL Trans-1T reagent and maintained in transfection medium overnight followed by a media change the next day. Transfected cells were maintained in this medium until the experiment was conducted (48-72 h total post transfection).
# (§2) Electrophysiology. For analysis of recombinant receptors, HEK293-T/17 cells were co-transfected with 0.2 μg of iGluR cDNA and 0.05 μg of eGFP. For heterologous GluA1/GluA2 receptors, the GluA1:GluA2 cDNA ratio was 1:6. Two to three days post-transfection, eGFP-expressing cells were lifted from the cover slip and voltage clamped in whole cell mode. […]
# [2] = biological target: T2, homomeric GluA1 AMPA receptor (Rattus norvegicus, UniProt P19490); test: Whole-cell patch clamp of recombinant GluA1 receptors in HEK293-T/17 cells; assay type: cell-based; conditions: 30 μM; 10 mM glutamate
# T2 construct: expressed in transfected cells; host or cells: HEK293-T/17 (CRL-11268)
# Description: as §1, §2
# GluA4 = biological target: T3, GluA4 (Rattus norvegicus, UniProt P19493); test: [3H]-AMPA radioligand binding, membranes of HEK293-T/17 cells expressing GluA4; conditions: 100 μM
# T3 construct: expressed in transfected cells; host or cells: HEK293-T/17 (CRL-11268)
# Description: Radioligand binding. HEK293-T/17 cells were transfected with 5 μg of iGluR cDNA in 100 mm^2 culture dishes. Two days post transfection, the plates were washed twice with ice-cold Dulbecco's phosphate-buffered saline (DPBS) and then incubated with 50 mM Tris (pH 7.4) and 1 mM EDTA for three minutes on ice. Cells were collected and centrifuged for five minutes at 800 g at room temperature. The cell pellet was homogenized in 50 mM Tris (pH 7.4) containing 320 mM sucrose (homogenization buffer, HB) on ice using a glass dounce homogenizer and centrifuged at 4° C. for 10 minutes at 800 g. The supernatant, containing the membrane fragments, was saved and the remaining pellet containing nuclei and unbroken cells was resuspended in HB. This homogenization process was repeated two more times and after collection of the final resulting supernatant, the remaining pellet was discarded. The collected supernatants were centrifuged at 4° C. for 20 minutes at 20000 g and the resulting supernatant was discarded leaving a membrane-containing pellet. The pellets were resuspended in freshly prepared binding buffer containing (in mM) 50 Tris (pH 7.2), 2.5 CaCl2, 10% glycerol and 100 KSCN (for AMPA receptors) or exclusively 50 Tris (pH 7.4) (for kainate receptors). Membrane protein (50-100 μg) was combined with radiolabeled ligand (10 nM [^3H]-KA or 20 nM [^3H]-AMPA for kainate receptor and AMPA receptor binding, respectively), alone or with 100 μM of IKM-159, and then incubated for 1 h at 4° C. Non-specific binding was determined as the amount of radioligand bound in the presence of a saturating concentration of glutamate (1 mM). Total binding was determined as the amount of radioligand bound in the absence of any competing ligands minus the non-specific binding. […] Data were presented as a percentage of the total binding. All experimental conditions were performed in duplicate in each assay and then averaged for each trial.
# GluK2a = biological target: T4, GluK2a (Rattus norvegicus, UniProt P42260); test: [3H]-KA radioligand binding, membranes of HEK293-T/17 cells expressing GluK2a; conditions: 10 nM [3H]-KA, 1 h at 4° C., read-out: [3H]KA bound as percent of total (specific) binding in absence of competing ligand
# T4 construct: myc; expressed in transfected cells; host or cells: HEK293-T/17 (CRL-11268)
# Description: (§3) Radioligand binding. HEK293-T/17 cells were transfected with 5 μg of iGluR cDNA in 100 mm^2 culture dishes. Two days post transfection, the plates were washed twice with ice-cold Dulbecco's phosphate-buffered saline (DPBS) and then incubated with 50 mM Tris (pH 7.4) and 1 mM EDTA for three minutes on ice. Cells were collected and centrifuged for five minutes at 800 g at room temperature. The cell pellet was homogenized in 50 mM Tris (pH 7.4) containing 320 mM sucrose (homogenization buffer, HB) on ice using a glass dounce homogenizer and centrifuged at 4° C. for 10 minutes at 800 g. The supernatant, containing the membrane fragments, was saved and the remaining pellet containing nuclei and unbroken cells was resuspended in HB. This homogenization process was repeated two more times and after collection of the final resulting supernatant, the remaining pellet was discarded. The collected supernatants were centrifuged at 4° C. for 20 minutes at 20000 g and the resulting supernatant was discarded leaving a membrane-containing pellet. […] Non-specific binding was determined as the amount of radioligand bound in the presence of a saturating concentration of glutamate (1 mM). Total binding was determined as the amount of radioligand bound in the absence of any competing ligands minus the non-specific binding. […]
# GluA2 = biological target: T5, GluA2 (Rattus norvegicus, UniProt P19491); test: [3H]-AMPA radioligand binding, membranes of HEK293-T/17 cells expressing GluA2; conditions: 100 μM; 20 nM [3H]-AMPA; 1 h at 4° C.
# T5 construct: expressed in transfected cells; host or cells: HEK293-T/17 (CRL-11268), membranes
# Description: as §3
# T3 sequence (P19493 21-902 isoform P19493-2 limits assumed): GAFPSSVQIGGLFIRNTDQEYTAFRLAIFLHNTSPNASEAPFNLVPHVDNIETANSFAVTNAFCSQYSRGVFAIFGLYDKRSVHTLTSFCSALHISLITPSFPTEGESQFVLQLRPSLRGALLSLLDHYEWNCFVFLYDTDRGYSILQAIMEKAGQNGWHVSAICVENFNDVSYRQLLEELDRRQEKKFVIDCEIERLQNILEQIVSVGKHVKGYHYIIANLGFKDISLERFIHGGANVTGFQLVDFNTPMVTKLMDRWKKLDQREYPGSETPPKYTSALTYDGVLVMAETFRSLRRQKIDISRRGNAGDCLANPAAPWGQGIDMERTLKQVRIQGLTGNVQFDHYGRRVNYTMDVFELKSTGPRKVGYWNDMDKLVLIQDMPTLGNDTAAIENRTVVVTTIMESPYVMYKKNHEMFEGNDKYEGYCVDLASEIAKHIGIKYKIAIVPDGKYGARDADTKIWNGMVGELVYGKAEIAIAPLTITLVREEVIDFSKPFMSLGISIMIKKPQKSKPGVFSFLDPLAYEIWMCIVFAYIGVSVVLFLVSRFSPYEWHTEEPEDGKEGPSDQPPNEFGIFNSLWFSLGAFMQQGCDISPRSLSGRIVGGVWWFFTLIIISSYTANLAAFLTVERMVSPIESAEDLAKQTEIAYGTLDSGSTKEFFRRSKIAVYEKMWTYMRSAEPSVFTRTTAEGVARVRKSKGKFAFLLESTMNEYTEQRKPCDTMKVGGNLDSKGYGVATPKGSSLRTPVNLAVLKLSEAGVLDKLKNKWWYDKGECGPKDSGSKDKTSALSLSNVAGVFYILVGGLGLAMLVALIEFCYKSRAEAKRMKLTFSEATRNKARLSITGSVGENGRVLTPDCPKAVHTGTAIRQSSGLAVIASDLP
# T5 sequence (P19491 22-883 isoform P19491-2 limits assumed): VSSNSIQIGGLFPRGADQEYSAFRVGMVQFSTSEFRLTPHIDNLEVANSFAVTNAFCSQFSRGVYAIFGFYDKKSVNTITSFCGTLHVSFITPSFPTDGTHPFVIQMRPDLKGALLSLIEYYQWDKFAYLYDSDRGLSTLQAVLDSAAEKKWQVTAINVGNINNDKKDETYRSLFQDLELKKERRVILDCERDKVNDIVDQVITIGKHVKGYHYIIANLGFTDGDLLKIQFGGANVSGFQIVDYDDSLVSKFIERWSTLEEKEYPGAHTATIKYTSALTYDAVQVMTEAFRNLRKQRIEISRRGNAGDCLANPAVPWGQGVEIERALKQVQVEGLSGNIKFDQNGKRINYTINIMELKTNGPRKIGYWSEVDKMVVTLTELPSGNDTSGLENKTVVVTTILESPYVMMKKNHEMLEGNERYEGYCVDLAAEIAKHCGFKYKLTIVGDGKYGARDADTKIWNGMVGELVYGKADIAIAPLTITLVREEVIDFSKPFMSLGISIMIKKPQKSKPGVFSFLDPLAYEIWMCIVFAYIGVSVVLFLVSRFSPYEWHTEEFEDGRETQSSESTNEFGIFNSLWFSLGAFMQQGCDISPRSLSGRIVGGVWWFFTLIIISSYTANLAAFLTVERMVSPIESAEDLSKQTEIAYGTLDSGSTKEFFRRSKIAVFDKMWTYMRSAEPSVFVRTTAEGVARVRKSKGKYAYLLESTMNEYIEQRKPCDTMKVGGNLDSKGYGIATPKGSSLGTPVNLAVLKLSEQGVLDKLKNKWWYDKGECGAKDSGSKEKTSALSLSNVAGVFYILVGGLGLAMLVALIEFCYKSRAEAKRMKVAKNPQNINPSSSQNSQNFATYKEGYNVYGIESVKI
# T2 sequence (P19490 19-907 isoform P19490-2 limits assumed): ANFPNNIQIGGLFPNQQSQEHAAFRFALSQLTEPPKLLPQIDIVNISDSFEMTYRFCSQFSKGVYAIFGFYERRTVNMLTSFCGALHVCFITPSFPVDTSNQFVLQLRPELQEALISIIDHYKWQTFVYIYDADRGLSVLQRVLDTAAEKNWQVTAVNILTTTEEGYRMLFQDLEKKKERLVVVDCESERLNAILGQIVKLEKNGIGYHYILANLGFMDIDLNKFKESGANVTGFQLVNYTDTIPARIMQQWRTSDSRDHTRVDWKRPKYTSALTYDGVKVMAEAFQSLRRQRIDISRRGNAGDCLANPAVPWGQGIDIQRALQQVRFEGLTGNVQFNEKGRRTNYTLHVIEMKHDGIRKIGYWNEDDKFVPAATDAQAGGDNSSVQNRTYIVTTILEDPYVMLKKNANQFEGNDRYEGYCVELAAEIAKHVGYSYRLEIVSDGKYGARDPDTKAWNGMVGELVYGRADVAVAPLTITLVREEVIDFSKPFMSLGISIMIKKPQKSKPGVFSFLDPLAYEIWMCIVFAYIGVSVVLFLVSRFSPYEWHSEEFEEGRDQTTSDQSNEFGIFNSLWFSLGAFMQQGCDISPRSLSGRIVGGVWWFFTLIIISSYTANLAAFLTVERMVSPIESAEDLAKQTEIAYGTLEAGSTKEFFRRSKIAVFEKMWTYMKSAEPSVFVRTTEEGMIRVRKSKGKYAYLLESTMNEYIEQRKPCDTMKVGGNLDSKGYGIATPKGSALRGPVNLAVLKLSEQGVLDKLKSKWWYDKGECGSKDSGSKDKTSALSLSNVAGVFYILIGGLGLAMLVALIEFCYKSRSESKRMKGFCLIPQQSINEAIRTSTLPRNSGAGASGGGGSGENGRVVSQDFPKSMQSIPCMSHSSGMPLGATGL
# T1 sequence (P42260 32-908): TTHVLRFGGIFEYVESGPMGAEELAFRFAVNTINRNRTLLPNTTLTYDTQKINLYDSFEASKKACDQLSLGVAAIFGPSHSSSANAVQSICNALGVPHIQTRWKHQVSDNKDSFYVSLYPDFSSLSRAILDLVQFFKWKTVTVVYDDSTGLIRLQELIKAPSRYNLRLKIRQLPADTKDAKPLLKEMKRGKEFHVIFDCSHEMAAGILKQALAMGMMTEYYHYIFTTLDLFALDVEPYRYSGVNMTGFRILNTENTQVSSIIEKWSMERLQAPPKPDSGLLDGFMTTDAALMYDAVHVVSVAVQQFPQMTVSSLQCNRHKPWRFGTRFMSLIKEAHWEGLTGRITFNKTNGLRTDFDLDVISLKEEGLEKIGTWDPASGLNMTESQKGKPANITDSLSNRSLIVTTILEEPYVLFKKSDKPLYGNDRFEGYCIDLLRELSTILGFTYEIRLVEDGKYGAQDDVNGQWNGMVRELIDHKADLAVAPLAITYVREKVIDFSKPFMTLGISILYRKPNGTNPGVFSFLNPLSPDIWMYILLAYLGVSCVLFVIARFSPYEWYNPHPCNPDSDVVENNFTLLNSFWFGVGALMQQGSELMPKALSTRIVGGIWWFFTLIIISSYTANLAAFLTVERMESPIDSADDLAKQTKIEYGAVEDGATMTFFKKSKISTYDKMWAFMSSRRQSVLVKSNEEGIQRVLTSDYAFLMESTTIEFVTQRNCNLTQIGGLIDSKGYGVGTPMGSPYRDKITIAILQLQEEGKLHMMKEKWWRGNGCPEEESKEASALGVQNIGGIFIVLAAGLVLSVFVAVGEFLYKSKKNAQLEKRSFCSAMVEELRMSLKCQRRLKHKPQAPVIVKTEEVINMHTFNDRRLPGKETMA
# T4 sequence (P42260 32-908): as above
structure (smiles),measurement,setting,value
O=C(O)C[C@@]12O[C@H]3C=CCN[C@H]3C1CN[C@H]2C(=O)O (stereo partly shown) [IKM-159],GluK2a peak amplitude as percent of basal peak glutamate current,[1],93±2%
same,GluA1 peak amplitude as percent of basal (glutamate alone) peak,[2],92±3%
same,[3H]AMPA bound as percent of total (specific) binding in absence of competing ligand,"GluA4; 20 nM [3H]-AMPA, 1 h at 4° C.",90±6%
same,bound radioligand ([3H]-AMPA),GluA4; 1 h pre-incubation prior to addition of the radioligand,100%
same,bound radioligand ([3H]-AMPA),GluA4; 2 h incubation with [3H]-AMPA,113%
same,activity at 100 µM,GluK2a,98 ± 4%
same,[3H]AMPA bound as percent of total (specific) binding in absence of competing ligand,GluA2,107±5%
